In ChEMBL document CHEMBL1221404, “Caylobolide B, a macrolactone from symplostatin 1-producing marine cyanobacteria Phormidium spp. from Florida” (J Nat Prod, 2010):

Experiments:
Format in all cases: functional, cell-based
[1] = system: HT-29; assay: Cytotoxicity against human HT-29 cells after 48 hrs by MTT assay; conditions: HT-29, 48 h
[2] = system: HCT-116; assay: Cytotoxicity against human HCT116 cells
[3] = system: HeLa; assay: Cytotoxicity against human HeLa cells after 48 hrs by MTT assay

Structure (SMILES)	IC50 [1]	AC50 [2]	IC50 [3]
CC[C@H](C)[C@@H]([C@@H](CC(=O)N1CCC[C@H]1[C@H](OC)[C@@H](C)C(=O)N[C@@H](Cc1ccccc1)c1nccs1)OC)N(C)C(=O)[C@@H](NC(=O)[C@H]([C@@H](C)CC)N(C)C)C(C)C [SYMPLOSTATIN 1]	0.0015 µM		
CCCCC(C)C1C[C@@H](O)CCC[C@H](O)C[C@@H](O)C[C@@H](O)CCCC(O)CCCC(O)CCCC(O)CCCC(O)CC(O)CCC/C(C)=C/C(=O)O1 (some centres undefined) [CAYLOBOLIDE A]		Active	
CCCCC(C)C1CC(O)CCC[C@H](O)C[C@@H](O)C[C@@H](O)CCCC(O)CCCC(O)CCCC(O)CCC[C@@H](O)C[C@@H](O)CCC/C(C)=C/C(=O)O1 (some centres undefined) [CAYLOBOLIDE B]	4.5 µM		12.2 µM
